Test results reported in patent US20170172880A1, “Fast Dissolving Peroxymonosulfate Composition” (Colgate-Palmolive Company, priority 2015, published 2017).

Assay: In vitro whitening test on coffee-stained bovine teeth (ΔW*)
Conditions: Example 6, MPS added to 2% hydrogen peroxide mouthwash
Experimental: The bovine teeth have initial L values of 57-65. The teeth are submerged in deionized water, then removed and soaked for 2 minutes in 20 mL of the test solution. The teeth are then rinsed three times with deionized water. Each such treatment cycle is repeated fourteen times, and after every two cycles values for L*, a* and b* are measured. These figures are used to calculate a whiteness score, W*, which is a measure of overall color change relative to pure white:
ΔW*=W*(treated)−W*(baseline)
The resulting instant whitening mouthwash is compared to a comparative 2% hydrogen peroxide whitening mouthwash composition using the procedure described in Example 5.
The comparative HP mouthwash is compared to the MPS mouthwash and the MPS/HP mouthwash in side-by-side experiments.

O=S(=O)([O-])O[O-].[K+].[K+] [MPS, potassium peroxymonosulfate]
whitening effect when added to a hydrogen peroxide mouthwash: significant and unexpected additive whitening effect
